In brackets after ≈: the same amount, converted by molar mass. Records with an inconclusive call do not appear. Activity calls are given as the source filed them. No rule for the calls is given here.
System: M. tuberculosis H37Rv growth inhibition
Assay: Confirmatory growth inhibition assay against Mycobacterium tuberculosis H37Rv, potency (AID 1949);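 also: bacteria grown 7 days with compound before Alamar blue readout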

SMILES	IC50
Cc1cc(C)c2c(c1)c(-c1ccccc1)c(-c1ccccc1)n2CC(O)CN1CCN(CCO)CC1 (stereo not drawn)	3.02 µg/mL (≈ 6.24 µM)
CCOc1ccc(Nc2nc(-c3sc(C)nc3C)cs2)cc1	3.38 µg/mL (≈ 10.2 µM)
COC(=O)C1=C(C)N(c2ccc(F)c(Cl)c2)C(=O)C1	13.5 µg/mL (≈ 47.4 µM)
CCc1ccc(C(=S)Nc2ccccc2)nc1	2.23 µg/mL (≈ 9.2 µM)
Cc1c(C(=O)c2ccccc2)sc2nc(-c3ccccc3)nc(N)c12	7.76 µg/mL (≈ 22.5 µM)
O=C(CCN1CCC(c2ccccc2)C1)c1cccs1 (stereo not drawn)	11.5 µg/mL (≈ 40.2 µM)
O=C(NCCCn1ccnc1)c1cc(-c2ccc(Br)cc2)nc2ccccc12	9.43 µg/mL (≈ 21.7 µM)
CC(C)Oc1ccc(NC(=O)CSc2nc3ccccc3s2)cc1	6.12 µg/mL (≈ 17.1 µM)
O=C(Oc1c(Cl)cc(Cl)c2cccnc12)c1ccccc1[N+](=O)[O-]	0.2 µg/mL (≈ 0.551 µM)
COC(=O)COc1ccc(NC(=O)COc2ccc(C)cc2C)cc1	< 0.1 µg/mL
Cc1ccc(-c2cnc(C)c(-c3ccccc3)c2)nc1-c1ccccc1	> 50 µg/mL (inactive)
CC1(C)COC(/C=C/c2cccc([N+](=O)[O-])c2)=N1	11.6 µg/mL (≈ 47.1 µM)
CN1C(=O)N(C)c2ccc(C=O)c3cccc1c23	> 50 µg/mL (inactive)
Cc1ccc(N2CC(C(=O)Nc3ncc([N+](=O)[O-])s3)CC2=O)cc1 (stereo not drawn)	28.3 µg/mL (≈ 81.6 µM)
CCCn1nnnc1NC(=O)c1cccs1	1.67 µg/mL (≈ 7.04 µM)
CCCCC(=O)NC(=S)NNC(=O)c1ccc(C)c(Br)c1	2.79 µg/mL (≈ 7.49 µM)
O=C(/C=C/c1cccs1)N1CCN(Cc2ccc3c(c2)OCO3)CC1	< 0.1 µg/mL
CCOC(=O)C1CCCN(c2ncnc3c2cnn3-c2ccc(Cl)cc2)C1 (stereo not drawn)	4.21 µg/mL (≈ 10.9 µM)
COc1ccc(C(=O)C(CN2CCOCC2)c2ccccc2)cc1 (stereo not drawn)	2.09 µg/mL (≈ 6.42 µM)
COC(=O)CSc1nnc(-c2ccc(C)cc2)o1	0.15 µg/mL (≈ 0.568 µM)
O=C(NCc1ccc2c(c1)OCO2)c1cnn2c1NC(c1cccs1)CC2C(F)(F)F (stereo not drawn)	0.13 µg/mL (≈ 0.289 µM)
c1ccc(COc2ccc3ccccc3c2CNCc2cccnc2)cc1	7.91 µg/mL (≈ 22.3 µM)
COc1ccc(-c2nc(-c3ccc(O)cc3O)cs2)cc1OC	0.17 µg/mL (≈ 0.516 µM)
CCc1cc2c(=O)c(-c3ccc4c(c3)OCCCO4)coc2cc1OC(C)C(=O)OC (stereo not drawn)	39.9 µg/mL (≈ 94.1 µM)

SMILES	IC50
CCN(c1ccccc1)c1ccc([N+](=O)[O-])c2nonc12	0.17 µg/mL (≈ 0.598 µM)
COc1cc(/C=C/c2ccc3cccc(O)c3n2)cc([N+](=O)[O-])c1O	0.41 µg/mL (≈ 1.21 µM)
OC(COc1ccccc1Br)CN1CCN(C(c2ccccc2)c2ccccc2)CC1 (stereo not drawn)	5.33 µg/mL (≈ 11.1 µM)
CC(NC(=O)Nc1ccccc1O)(C(F)(F)F)C(F)(F)F	11.2 µg/mL (≈ 35.5 µM)
COc1ccc2nc(NC(=O)C(Sc3ccccc3)c3ccccc3)sc2c1 (stereo not drawn)	4.87 µg/mL (≈ 12 µM)
CNCCCOc1ccc(Cl)cc1C(C)(C)C	7.95 µg/mL (≈ 31.1 µM)
Cc1ccc(NC(=O)CSc2ccc(F)cc2)cc1	12.3 µg/mL (≈ 44.9 µM)
CC(=O)Cc1nc(-c2ccccc2)no1	> 50 µg/mL (inactive)
CCCCOc1ccc(S(=O)(=O)Nc2ccc(C)c(Cl)c2)cc1	5.13 µg/mL (≈ 14.5 µM)
CC(=O)c1ccc(S(=O)(=O)c2ccc(C)cc2)c([N+](=O)[O-])c1	2.94 µg/mL (≈ 9.21 µM)
C=CCN1C(=O)C(O)(CC(=O)c2ccc(C)cc2C)c2ccccc21 (stereo not drawn)	14.6 µg/mL (≈ 43.5 µM)
O=C(CC1Sc2ccc(Cl)cc2NC1=O)Nc1ccc([N+](=O)[O-])cc1 (stereo not drawn)	2.53 µg/mL (≈ 6.7 µM)
O=[N+]([O-])c1cccc(NC(=S)Nc2cc(C(F)(F)F)ccc2F)c1	19 µg/mL (≈ 52.9 µM)
O=C1c2ccc(-c3nc4ccccc4c(=O)o3)cc2C(=O)N1Cc1ccccc1	> 50 µg/mL (inactive)
O=C(Nc1ccccc1Cl)c1cc2cc(Cl)cc(Cl)c2oc1=O	> 50 µg/mL (inactive)
CCN(CC)CC(O)Cn1c(C)c(-c2ccccc2)c2cc([N+](=O)[O-])ccc21 (stereo not drawn)	29.4 µg/mL (≈ 77 µM)
COC(=O)C(C)Oc1ccc2c(=O)c(-c3ccc(Cl)cc3)coc2c1 (stereo not drawn)	4.23 µg/mL (≈ 11.8 µM)
CCOc1cc(CNCCO)ccc1OCc1ccc(Cl)cc1Cl	6.03 µg/mL (≈ 16.3 µM)
CC1=CC(C)(C)N2C(=O)C3(Nc4ccccc4S3)c3cc(C)cc1c32 (stereo not drawn)	16.9 µg/mL (≈ 48.6 µM)
CCOC(=O)c1cc(-c2ccccc2)sc1NC(=S)NC(C)c1ccncc1 (stereo not drawn)	1.47 µg/mL (≈ 3.57 µM)
Cc1nc2cc(NCc3cccc([N+](=O)[O-])c3)ccc2n1Cc1ccccc1	5.75 µg/mL (≈ 15.4 µM)
O=C(Oc1ccc(Cl)c2cccnc12)c1ccccc1Br	> 50 µg/mL (inactive)
Cc1ccc2c(C)nc(Nc3nc(CSc4nc5ccccc5s4)cc(=O)[nH]3)nc2c1	0.38 µg/mL (≈ 0.851 µM)
CC(CCc1ccccc1)NC(=O)c1ccc(Cl)cc1[N+](=O)[O-] (stereo not drawn)	3.7 µg/mL (≈ 11.1 µM)

SMILES	IC50
COc1ccc(OCC(=O)Nc2cccc(Cl)c2)cc1	2.78 µg/mL (≈ 9.53 µM)
O=C(Nc1ccccc1OC(F)F)c1ccc([N+](=O)[O-])o1	6.29 µg/mL (≈ 21.1 µM)
Cc1ccc2nc(N/N=C\c3ccc([N+](=O)[O-])o3)nc(-c3ccccc3)c2c1	3.63 µg/mL (≈ 9.72 µM)
O=C(CSc1ccc(Cl)cc1)Nc1ccc(Cl)c(C(F)(F)F)c1	3.18 µg/mL (≈ 8.36 µM)
Cc1cc(C)c2[nH]c3ccccc3c2n1	1.3 µg/mL (≈ 6.62 µM)
Cc1cccc(OC(C)C(=O)Nc2ccc([N+](=O)[O-])cc2)c1C (stereo not drawn)	3.13 µg/mL (≈ 9.96 µM)
Cc1cccnc1Nc1nc(-c2ccccn2)cs1	< 0.1 µg/mL
O=C(Nc1nccs1)c1cc(Cl)cc(Cl)c1	10.2 µg/mL (≈ 37.2 µM)
Cc1ccc(C(=O)CCNc2ccc(F)cc2)cc1	> 50 µg/mL (inactive)
COc1ccc(Cn2c(=O)c3c(n4cnnc24)-c2ccccc2CC32CCCCC2)cc1	2.84 µg/mL (≈ 6.66 µM)
COc1cccc2c1OC(c1ccccc1)C([N+](=O)[O-])=C2 (stereo not drawn)	0.7 µg/mL (≈ 2.47 µM)
Cc1cc(C(=O)Oc2ccc(Cc3ccccc3)cc2)ccc1[N+](=O)[O-]	2.23 µg/mL (≈ 6.42 µM)
N#Cc1cc2c(cc1C#N)OC(c1ccccc1)=NN2	16.4 µg/mL (≈ 63.1 µM)
Clc1ccc(Nc2nc(-c3ccccn3)cs2)nc1	< 0.1 µg/mL
O=C(CCNc1ccc(-c2ccccc2)cc1)c1ccco1	< 0.1 µg/mL
Cc1cc(OCCCn2ccnc2)cc(C(C)C)c1	6.24 µg/mL (≈ 24.2 µM)
C=CCn1c(O)c(C2=c3ccccc3=NC2=O)sc1=N	< 0.1 µg/mL
O=S(=O)(Nc1cc(Sc2cccc3cccnc23)c(O)c2ccccc12)c1ccccc1	0.18 µg/mL (≈ 0.393 µM)
CC12CCC(C(=O)Oc3cccc4cccnc34)(CC1=O)C2(C)C (stereo not drawn)	1.57 µg/mL (≈ 4.85 µM)
O=C(Nc1ccc2c(c1)CCC2)c1ccc(Br)s1	1.45 µg/mL (≈ 4.5 µM)
CN(c1ccccc1)c1ccc([N+](=O)[O-])c2nonc12	< 0.1 µg/mL
Cc1ccc(N2CC(C(=O)OCc3cccc(C(=O)Oc4ccccc4)c3)CC2=O)cc1 (stereo not drawn)	> 50 µg/mL (inactive)
COc1cccc(C(=O)Nc2ccc(Cl)c(C(F)(F)F)c2)c1OC	14.5 µg/mL (≈ 40.3 µM)
O=C1C(=O)N(CCc2ccccc2)c2ccc(Cl)cc21	4.73 µg/mL (≈ 16.6 µM)

SMILES	IC50
O=C(Nc1cccc(C(F)(F)F)c1)c1ccc(Cn2cc(Cl)cn2)cc1	5.67 µg/mL (≈ 14.9 µM)
Cc1ccc(N2C(=O)c3cccc4c(N5CCN(C)CC5)ccc(c34)C2=O)c2cccnc12	49.3 µg/mL (≈ 113 µM)
COc1ccc(C(=O)O/N=C(\N)Cc2ccc(Cl)c(Cl)c2)cc1OC	9.32 µg/mL (≈ 24.3 µM)
CC(C)(C)c1cc(Cl)c(O)c(NC(=S)NC(=O)c2cccc3ccccc23)c1	< 0.1 µg/mL
N#Cc1cc2c(ccc3ccccc32)oc1=O	2.12 µg/mL (≈ 9.58 µM)
O=C(c1ccccc1)c1ccc2nc(-c3cccc(NC(=O)C4CC4)c3)[nH]c2c1	7.78 µg/mL (≈ 20.4 µM)
CC(NCC(O)COc1ccccc1C(C)(C)C)c1ccccc1 (stereo not drawn)	2.55 µg/mL (≈ 7.79 µM)
Cc1ccc(NC(=O)c2ccc(N3CCN(C)CC3)c([N+](=O)[O-])c2)cc1Cl	2.22 µg/mL (≈ 5.71 µM)
O=C(NCCC12CC3CC(CC(C3)C1)C2)c1ccc(Br)cc1	0.28 µg/mL (≈ 0.773 µM)
CCOc1ccc(OCC(=O)Nc2cc(C)cc(C)c2)cc1	1.51 µg/mL (≈ 5.04 µM)
COc1cccc(C(=O)OCc2cccc(C(=O)Oc3ccccc3)c2)c1	9.15 µg/mL (≈ 25.2 µM)
CCCCSc1ccc(NCCC(=O)c2ccco2)cc1	0.42 µg/mL (≈ 1.38 µM)
C(=NN1CCN(C2c3ccccc3-c3ccccc32)CC1)c1ccncc1	11.2 µg/mL (≈ 31.5 µM)
CCOC(=O)c1ccc(NC(=S)Nc2ccc(F)c(Cl)c2)cc1	0.28 µg/mL (≈ 0.794 µM)
O=C(c1cccc([N+](=O)[O-])c1)N1N=C(c2ccc(Br)cc2)CC1(O)C(F)(F)F (stereo not drawn)	2.13 µg/mL (≈ 4.65 µM)
O=C(Nc1ccc(Nc2ccccc2)cc1)C(Cl)Cl	6.79 µg/mL (≈ 23 µM)
O=C(COc1ccc(-c2ccccc2)cc1)OC1CCCCC1	0.65 µg/mL (≈ 2.09 µM)
CC(C)(C)Nc1nc(N2CCCC2)nc(N2CCCC2)n1	> 50 µg/mL (inactive)
O=C(CSc1nnc(-c2ccccc2)o1)N1CCc2ccccc2C1	9.27 µg/mL (≈ 26.4 µM)
CCCCNCCCCOc1ccc2ccccc2c1Br	1.63 µg/mL (≈ 4.65 µM)
CCOC(=O)c1sc(NC(=O)NC2CCCCC2)cc1C	0.75 µg/mL (≈ 2.42 µM)
COc1ccc(NC(=O)CC23CC4CC(CC(C4)C2)C3)cc1Cl	3.05 µg/mL (≈ 9.14 µM)
N#CSc1ccc(NC(=O)CSc2nc3ccccc3[nH]2)cc1	6.24 µg/mL (≈ 18.3 µM)
CCOC(=O)c1c2c(n(C)c1CN(CC)CC)C(=O)C(=O)c1ccc(Br)cc1-2	0.17 µg/mL (≈ 0.38 µM)

SMILES	IC50
O=C(CN(c1ccc(Cl)c(Cl)c1)S(=O)(=O)c1ccccc1)Nc1cccc([N+](=O)[O-])c1	1.47 µg/mL (≈ 3.06 µM)
COC(=O)c1ccc(OC(=O)c2ccc(C)c([N+](=O)[O-])c2)cc1	> 50 µg/mL (inactive)
CCOc1ccc(N2C(=O)CC(Nc3ccccc3O)C2=O)cc1 (stereo not drawn)	4.58 µg/mL (≈ 14 µM)
COc1ccc(Nc2ccnc3cc4ccccc4cc23)cc1	0.74 µg/mL (≈ 2.46 µM)
CCCCc1ccc(NC(=O)c2cc3cc(Br)cc(OC)c3oc2=O)cc1	0.69 µg/mL (≈ 1.6 µM)
CCOC(=O)COc1ccc2c(c1)c(C(=O)OCC)c(C)n2CC	0.4 µg/mL (≈ 1.2 µM)
O=C(/C=C/c1cccc(C(F)(F)F)c1)Nc1cccc(Br)c1	1.39 µg/mL (≈ 3.76 µM)
O=C(O)c1ccc(NC(=S)NC(=O)c2ccc(-c3ccccc3)cc2)cc1	1.58 µg/mL (≈ 4.2 µM)
O=C1N(Cc2ccccc2Cl)c2ccc(Cl)cc2C1(O)c1c[nH]c2ccccc12 (stereo not drawn)	3.04 µg/mL (≈ 7.18 µM)
CCc1c(C)c2ccc(OCC(=O)OC)c(C)c2oc1=O	0.54 µg/mL (≈ 1.86 µM)
N#Cc1c(C(F)(F)F)cc(-c2cccs2)nc1SCC(O)CN1CCSCC1 (stereo not drawn)	10.9 µg/mL (≈ 24.6 µM)
Cc1nn(-c2ccccc2)c(C)c1N1C(=O)c2cccc3cc([N+](=O)[O-])cc(c23)C1=O	0.15 µg/mL (≈ 0.364 µM)
O=C(NCc1ccccc1)c1cc2cc(Cl)cc(Cl)c2oc1=O	> 50 µg/mL (inactive)
COc1ccc(Cl)cc1/C=C/[N+](=O)[O-]	5.64 µg/mL (≈ 26.4 µM)
O=C(NNC(=S)NCc1ccc(F)cc1)c1ccncc1	5.78 µg/mL (≈ 19 µM)
O=C(CCN1CCc2ccccc2C1)c1ccc2c(c1)OCCO2	14.9 µg/mL (≈ 46 µM)
CCOC(=O)c1ccc(NC(=S)Nc2ccc(Oc3ccccc3)cc2)cc1	0.39 µg/mL (≈ 0.994 µM)
COc1cccc(-n2nnnc2S(C)(=O)=O)c1	1.16 µg/mL (≈ 4.56 µM)
C#CCOc1c(Br)cc(/C=C/[N+](=O)[O-])cc1OC	38.2 µg/mL (≈ 122 µM)
O=C(Nc1ncnc2sc3c(c12)CCCC3)c1ccc(F)cc1	0.52 µg/mL (≈ 1.59 µM)
CCCCNCCOc1ccc(Cl)cc1C(C)(C)C	12.8 µg/mL (≈ 45 µM)
O=C(Nc1ccc2ccccc2c1)Nc1ccc2snnc2c1	0.9 µg/mL (≈ 2.81 µM)

— PubChem BioAssay AID1949 (Southern Research Institute, 2009)
